Assays:
[1] = test system: two-spotted mite (Tetranychus urticae (Koch)), adults and nymphal stages; experiment: Mite Foliage Spray Test (adult miticidal); type: in vivo; set-up: key to Miticidal, Adult (control rating): A: Excellent Control; B: Partial Control; No Control; details: Table I; mortality count four days after spraying
Experimental: (§1) Suspensions of the test compounds were prepared by dissolving one gram of compound in 50 milliliters of acetone in which had been dissolved 0.1 gram (10 percent of the weight of compound) of an alkylphenoxyethoxyethanol surfactant, as an emulsifying or dispersing agent. The resulting solution was mixed into 160 milliliters of water to give roughly 200 milliliters of a suspension containing the compound in finely divided form. The thus prepared stock suspension contained 0.5 percent by weight of compound. The test concentrations employed in the tests described herein below were obtained by diluting the stock suspension with water. The test procedures were as follows:
Adults and nymphal stages of the two-spotted mite (Tetranychus urticae (Koch)), reared on Tendergreen bean plants at 80°±5° F. and 50±5 percent relative humidity, were the test organisms. Infested leaves from a stock culture were placed on the primary leaves of two bean plants six to eight inches in height, growing in a two-and-a-half inch clay pot. 150-200 Mites, a sufficient number for testing, transferred from the excised leaves to the fresh plants in a period of twenty-four hours. Following the twenty-four hour transfer period, the excised leaves were removed from the infested plants. The test compounds were formulated by diluting the stock suspension with water to provide suspensions containing the desired amount of test compound per million parts of final formulation. The potted plants (one pot per compound) were placed on a revolving turntable and sprayed with 100-110 milliliters of test compound formulation by use of a DeVilbis spray gun set at 40 psi. air pressure. This application, which lasted 30 seconds, was sufficient to wet the plants to run-off. As a control, 100-110 milliliters of a water solution containing acetone and emulsifier in the same concentrations as the test compound formulation, but containing no test compound, were also sprayed on infested plants. The sprayed plants were held at 80°±5° F. and 50±5 percent relative humidity for four days, after which, a mortality count of motile forms was made on the leaves of the test plants. Any individual which was capable of locomotion upon prodding was considered living.
(§2) In these tests the pesticidal activity of the compounds against mites and mite eggs were rated as follows:
(§3) Tests were conducted in accordance with the procedures given at pages 32 to 37 supra. The results are expressed in the same manner as used in Table I, except with respect to miticidal activity. For mite adult and mite egg comparison purposes, results are given in parts per million (ppm) required for a 50 percent kill of mites or eggs, respectively.

[2] = test system: egg of the two-spotted mite (Tetranychus urticae (Koch)); experiment: Mite Ovicide Test (egg); type: in vivo; set-up: key to Miticidal, Egg (control rating): A: Excellent Control; B: Partial Control; No Control; details: Table I; unhatched/hatched eggs four days after spraying
Experimental: as §1
The test organism was the egg of the two-spotted mite (Tetranychus urticae (Koch)), as obtained from adults reared on Tendergreen bean plants under controlled conditions of 80°±5° F. and 50±5 percent relative humidity. Heavily infested leaves from a stock culture were placed on the primary leaves of two bean plants six to eight inches in height growing in a two-and-a-half inch clay pot. Females were allowed to oviposit for a period of 48 hours and then the leaves of the infested plants were dipped in a solution containing 800 parts of tetraethyl pyrophosphate per million parts of water in order to destroy the reproductory forms and thus prevent further egg laying. […] The plants were allowed to dry thoroughly. The test compounds were formulated by diluting the stock suspension with water to give a suspension containing varying amounts of test compound per million parts of final formulation. The potted plants (one pot per compound) were placed on a revolving turntable and sprayed with 100-110 milliliters of test compound formulation by use of a DeVilbis spray gun set at 40 spig. air pressure. This application which lasted 30 seconds, was sufficient to wet the plants to run-off. As a control, 100-110 milliliters of a water solution containing acetone and emulsifier in the same concentrations as the test compound formulation, but containing no test compound, were also sprayed on plants infested with eggs. The sprayed plants were held at 80°±5° F. and 50±5 percent relative humidity for four days, after which a microscopic examination was made of unhatched (dead) and hatched (living) eggs.
as §2, §3

O=C1C(c2ccc(Cl)cc2Cl)C(=O)C2CC=CCC12 (centres unmarked) [Cl Cl H (CH2 CHCHCH2), 8-(2',4'-dichlorophenyl)bicyclo[4.3.0]non-3-en-7,9-dione]
Miticidal, Adult (control rating) [1]: A
Miticidal, Egg (control rating) [2]: A

Source: patent US4338122A, “Biocidal 2-aryl-1,3-cyclopentanedione compounds and alkali metal and ammonium salts thereof” (Union Carbide Corporation, priority 1980, dated 1982)
